{
  "source": "patent USRE47141E1",
  "about": "“Methods of treating fibrosis, cancer and vascular injuries” (EWHA University—Industry Collaboration Foundation, priority 2010, dated 2018)",
  "key": {"ERK1": {"target": "ERK1 (Homo sapiens (Human), UniProt P27361)", "sequence (P27361 whole entry, species assumed)": "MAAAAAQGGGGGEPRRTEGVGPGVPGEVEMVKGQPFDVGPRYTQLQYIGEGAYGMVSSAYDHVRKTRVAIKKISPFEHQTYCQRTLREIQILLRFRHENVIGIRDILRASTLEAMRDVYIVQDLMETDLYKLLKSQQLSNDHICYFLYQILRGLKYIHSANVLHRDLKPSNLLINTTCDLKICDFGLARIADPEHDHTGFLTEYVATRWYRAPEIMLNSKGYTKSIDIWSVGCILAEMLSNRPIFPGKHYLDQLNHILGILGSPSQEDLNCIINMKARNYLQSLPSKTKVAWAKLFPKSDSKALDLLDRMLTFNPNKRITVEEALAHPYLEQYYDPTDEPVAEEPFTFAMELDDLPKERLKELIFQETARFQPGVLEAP", "experiment": "Kinase selectivity profiling", "format": "biochemical", "experimental": "(§1) Kinase assays were performed in 96-well FlashPlates™ from Perkin Elmer in a […]. […] The reaction cocktail contained 70 mM HEPES-NaOH, pH 7.5, 3 mM MnCl2, 3 μM Na3VO4, 1.2 mM DTT, 1 μM [γ-^33P]-ATP (approximately 6×10^5 cpm per well), protein kinase (variable amounts), and substrate (variable amounts). The reaction cocktails were incubated at 30° C. for 60 min. The reaction was stopped with 50 μL of 2% (v/v) H3PO4, and plates were aspirated and washed two times with 200 μL 0.9% (w/v) NaCl. ALL assays were performed with a BeckmanCoulter Biomek 2000/SL robotic system. Incorporation of ^33Pi (counting of “cpm”) was determined with a microplate scintillation counter."}, "STK23": {"target": "STK23 (Homo sapiens (Human), UniProt Q9UPE1)", "sequence (Q9UPE1 whole entry, species assumed)": "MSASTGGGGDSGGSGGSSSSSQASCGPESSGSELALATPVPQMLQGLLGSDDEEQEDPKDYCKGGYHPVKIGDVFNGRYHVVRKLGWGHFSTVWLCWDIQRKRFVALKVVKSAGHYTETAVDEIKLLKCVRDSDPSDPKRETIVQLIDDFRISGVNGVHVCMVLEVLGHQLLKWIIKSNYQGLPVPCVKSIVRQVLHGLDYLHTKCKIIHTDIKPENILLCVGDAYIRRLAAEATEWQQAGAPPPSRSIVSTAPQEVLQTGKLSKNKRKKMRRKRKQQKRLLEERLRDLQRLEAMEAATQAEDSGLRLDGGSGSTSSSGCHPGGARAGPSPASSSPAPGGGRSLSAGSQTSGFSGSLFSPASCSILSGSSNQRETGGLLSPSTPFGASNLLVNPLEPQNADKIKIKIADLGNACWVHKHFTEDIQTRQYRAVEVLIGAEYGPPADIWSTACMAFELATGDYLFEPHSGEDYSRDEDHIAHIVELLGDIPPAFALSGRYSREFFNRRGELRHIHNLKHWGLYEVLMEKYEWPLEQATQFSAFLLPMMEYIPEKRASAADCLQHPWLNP", "experiment": "Kinase selectivity profiling", "format": "biochemical", "experimental": "as §1"}, "ALK1": {"target": "ALK1 (Homo sapiens (Human), UniProt P37023)", "sequence (P37023 22-503, species assumed)": "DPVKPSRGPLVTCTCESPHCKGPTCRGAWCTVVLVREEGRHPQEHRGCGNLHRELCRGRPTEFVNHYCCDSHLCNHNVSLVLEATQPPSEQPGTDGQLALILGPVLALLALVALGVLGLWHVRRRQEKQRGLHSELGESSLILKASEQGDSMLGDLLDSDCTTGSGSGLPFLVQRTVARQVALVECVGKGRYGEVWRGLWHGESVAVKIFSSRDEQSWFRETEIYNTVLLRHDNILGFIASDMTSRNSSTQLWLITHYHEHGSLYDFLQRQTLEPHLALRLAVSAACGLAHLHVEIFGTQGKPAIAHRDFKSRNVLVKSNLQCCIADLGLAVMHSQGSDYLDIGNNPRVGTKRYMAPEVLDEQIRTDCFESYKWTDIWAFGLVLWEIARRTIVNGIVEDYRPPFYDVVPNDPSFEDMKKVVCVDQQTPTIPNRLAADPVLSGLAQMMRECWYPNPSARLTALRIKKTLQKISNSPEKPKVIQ", "experiment": "Kinase selectivity profiling", "format": "biochemical", "experimental": "as §1"}, "EGF-R wt": {"target": "EGF-R wt (Homo sapiens (Human), UniProt P00533)", "sequence (P00533 25-1210)": "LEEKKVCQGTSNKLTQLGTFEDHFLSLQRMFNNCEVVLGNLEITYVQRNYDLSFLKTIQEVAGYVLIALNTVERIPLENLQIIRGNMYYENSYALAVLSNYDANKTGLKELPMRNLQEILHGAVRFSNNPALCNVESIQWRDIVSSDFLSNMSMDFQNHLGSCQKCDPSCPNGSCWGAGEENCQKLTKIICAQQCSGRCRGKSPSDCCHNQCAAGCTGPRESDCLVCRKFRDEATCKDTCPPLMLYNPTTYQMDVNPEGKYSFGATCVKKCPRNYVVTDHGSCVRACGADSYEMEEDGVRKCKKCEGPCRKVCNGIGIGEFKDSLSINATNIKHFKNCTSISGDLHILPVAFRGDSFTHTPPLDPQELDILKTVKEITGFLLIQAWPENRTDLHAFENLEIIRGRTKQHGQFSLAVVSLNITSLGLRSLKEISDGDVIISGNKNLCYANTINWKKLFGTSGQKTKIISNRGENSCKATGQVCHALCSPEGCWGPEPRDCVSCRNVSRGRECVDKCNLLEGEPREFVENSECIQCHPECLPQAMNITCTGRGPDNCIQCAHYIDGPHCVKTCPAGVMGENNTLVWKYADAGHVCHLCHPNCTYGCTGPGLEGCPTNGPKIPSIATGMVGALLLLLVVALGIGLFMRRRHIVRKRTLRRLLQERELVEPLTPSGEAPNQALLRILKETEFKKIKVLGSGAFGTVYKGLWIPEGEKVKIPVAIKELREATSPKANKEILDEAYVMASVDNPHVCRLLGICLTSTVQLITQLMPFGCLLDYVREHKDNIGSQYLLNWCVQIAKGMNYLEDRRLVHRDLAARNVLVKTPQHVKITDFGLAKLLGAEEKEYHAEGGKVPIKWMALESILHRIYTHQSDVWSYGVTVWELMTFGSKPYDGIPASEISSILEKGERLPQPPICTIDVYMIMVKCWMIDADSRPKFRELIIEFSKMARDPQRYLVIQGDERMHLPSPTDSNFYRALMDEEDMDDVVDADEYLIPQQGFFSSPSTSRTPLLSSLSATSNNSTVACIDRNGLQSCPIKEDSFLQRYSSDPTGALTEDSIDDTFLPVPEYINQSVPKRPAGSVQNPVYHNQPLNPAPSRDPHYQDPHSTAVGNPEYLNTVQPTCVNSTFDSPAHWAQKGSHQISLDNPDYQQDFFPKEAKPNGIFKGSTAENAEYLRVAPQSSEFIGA", "experiment": "Kinase selectivity profiling", "format": "biochemical", "experimental": "as §1"}, "PDGFRβ": {"target": "PDGFRβ (Homo sapiens (Human), UniProt P09619)", "sequence (P09619 33-1106, species assumed)": "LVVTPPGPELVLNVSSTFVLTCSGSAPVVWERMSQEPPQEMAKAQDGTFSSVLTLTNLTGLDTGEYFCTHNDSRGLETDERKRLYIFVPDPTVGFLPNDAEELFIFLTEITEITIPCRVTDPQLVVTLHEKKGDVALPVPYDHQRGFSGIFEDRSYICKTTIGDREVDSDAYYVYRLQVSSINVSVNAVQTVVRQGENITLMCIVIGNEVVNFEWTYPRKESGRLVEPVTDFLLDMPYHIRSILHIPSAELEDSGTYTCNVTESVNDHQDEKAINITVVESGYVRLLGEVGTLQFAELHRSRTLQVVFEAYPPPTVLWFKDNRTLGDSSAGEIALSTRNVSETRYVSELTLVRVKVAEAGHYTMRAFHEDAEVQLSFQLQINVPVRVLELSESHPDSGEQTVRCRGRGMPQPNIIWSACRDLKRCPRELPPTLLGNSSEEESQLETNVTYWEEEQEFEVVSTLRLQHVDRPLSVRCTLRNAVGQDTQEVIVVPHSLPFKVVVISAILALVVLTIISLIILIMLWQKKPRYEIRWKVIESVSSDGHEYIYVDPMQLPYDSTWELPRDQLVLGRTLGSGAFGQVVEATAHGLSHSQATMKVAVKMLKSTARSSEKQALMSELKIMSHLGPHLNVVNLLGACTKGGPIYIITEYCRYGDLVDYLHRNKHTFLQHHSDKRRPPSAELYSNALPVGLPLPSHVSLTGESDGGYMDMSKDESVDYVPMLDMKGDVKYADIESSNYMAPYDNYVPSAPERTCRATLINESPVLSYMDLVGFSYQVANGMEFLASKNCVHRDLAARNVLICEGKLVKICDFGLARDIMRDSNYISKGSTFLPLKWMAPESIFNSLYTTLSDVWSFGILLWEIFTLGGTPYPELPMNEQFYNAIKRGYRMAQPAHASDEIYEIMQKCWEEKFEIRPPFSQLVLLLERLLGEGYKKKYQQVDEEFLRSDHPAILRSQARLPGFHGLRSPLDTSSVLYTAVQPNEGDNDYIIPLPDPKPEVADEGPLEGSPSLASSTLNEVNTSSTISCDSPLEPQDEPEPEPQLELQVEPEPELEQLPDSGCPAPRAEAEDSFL", "experiment": "Kinase selectivity profiling", "format": "biochemical", "experimental": "as §1"}, "AKT1": {"target": "AKT1 (Homo sapiens (Human), UniProt P31749)", "sequence (P31749 whole entry, species assumed)": "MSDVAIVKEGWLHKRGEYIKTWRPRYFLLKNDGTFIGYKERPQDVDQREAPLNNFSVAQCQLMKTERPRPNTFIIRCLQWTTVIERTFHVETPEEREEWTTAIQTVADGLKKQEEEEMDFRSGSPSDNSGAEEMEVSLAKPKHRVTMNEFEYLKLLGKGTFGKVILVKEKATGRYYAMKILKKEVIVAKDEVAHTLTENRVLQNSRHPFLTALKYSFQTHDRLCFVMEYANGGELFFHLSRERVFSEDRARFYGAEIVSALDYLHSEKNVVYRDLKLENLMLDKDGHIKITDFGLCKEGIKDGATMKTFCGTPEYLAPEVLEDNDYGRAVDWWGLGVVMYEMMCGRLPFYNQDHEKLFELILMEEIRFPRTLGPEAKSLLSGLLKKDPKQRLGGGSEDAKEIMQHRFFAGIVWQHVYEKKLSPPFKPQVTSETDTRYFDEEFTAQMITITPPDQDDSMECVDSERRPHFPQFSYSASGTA", "experiment": "Kinase selectivity profiling", "format": "biochemical", "experimental": "as §1"}, "4T1 cells [1]": {"system": "4T1 cells", "experiment": "Cell growth study (SRB assay), 4T1", "format": "cell-based", "conditions": "0.2% serum medium, four days", "experimental": "Either 4T1 cells or MCF10A cells were seeded in 96-well plate at 5×10^3 cells per well. […] After incubation for four days, cell viability was determined by SRB assay."}, "[2]": {"system": "TGF-β1-induced Smad2/3 nuclear translocation in MCF10A cells", "experiment": "Immunofluorescence assay", "format": "cell-based", "conditions": "TGF-β1 2 ng/mL, 1 μM, 2 h", "experimental": "MCF10A cells were plated on the cover glass in 6-well plate at 2×10^5 cells/well. After 12 h, when cells were attached, 10% FBS medium was changed to 0.5% FBS medium. […] Then, cells were fixed with 4% formaldehyde solution for 30 min at room temperature and quenched with quenching solution (50 mM NH4Cl in PBS) for 15 min. After being washed three times with PBS, cells were incubated with blocking/permeabilization solution (1% BSA and 0.1% Triton X-100 in PBS) for 1 h at room temperature and incubated with anti-Smad2/3 antibody (BD Biosciences, Franklin Lakes, N.J., USA) overnight at 4° C. Fluorescence was visualized by Cy3-conjugated goat anti-mouse IgG (Jackson ImmunoResearch Laboratories, Bar Harbor, Me., USA). Nuclei of the same cells were stained with DAPI solution. Cells were analyzed using the LSM 510 META laser confocal microscopy system (Carl Zeiss, Germany)."}, "[3]": {"system": "bile duct-ligated (BDL) rats", "experiment": "Anti-fibrotic effect on bile duct-ligated liver fibrosis model", "format": "in vivo", "conditions": "for Body weight / Organ weight Liver / Organ weight Liver/Body / Organ weight Spleen / Organ weight Spleen/Body: BDL rats, mean ± S.E."}, "ALK4": {"target": "ALK4 (Homo sapiens (Human), UniProt P36896)", "sequence (P36896 24-505)": "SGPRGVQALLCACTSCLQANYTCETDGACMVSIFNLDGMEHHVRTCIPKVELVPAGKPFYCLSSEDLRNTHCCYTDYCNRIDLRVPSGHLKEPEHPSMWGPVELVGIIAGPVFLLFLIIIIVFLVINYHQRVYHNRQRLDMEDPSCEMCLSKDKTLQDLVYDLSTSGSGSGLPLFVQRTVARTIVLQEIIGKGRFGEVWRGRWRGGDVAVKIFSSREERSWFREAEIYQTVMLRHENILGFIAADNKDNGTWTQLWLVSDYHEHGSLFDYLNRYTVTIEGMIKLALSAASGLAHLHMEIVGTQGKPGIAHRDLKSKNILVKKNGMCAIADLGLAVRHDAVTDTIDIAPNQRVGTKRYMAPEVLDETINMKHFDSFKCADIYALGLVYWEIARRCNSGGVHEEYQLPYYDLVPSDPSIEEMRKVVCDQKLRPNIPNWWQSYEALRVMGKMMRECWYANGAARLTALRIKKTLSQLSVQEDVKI", "experiment": "Cell-free assay for inhibition of ALK4 kinase phosphorylation", "format": "biochemical", "experimental": "ALK5 protein was expressed in Sf9 insect cells as human recombinant GST-fusion protein using the baculovirus expression system. Expressed protein was purified by affinity chromatography using GSH-agarose (Sigma-Aldrich). Kinase assay was performed in 96-well FlashPlates™ from Perkin Elmer (Boston, Mass., USA) in a 50 μL reaction volume. The reaction cocktail was pipetted in four steps in the following order: 20 μL of assay buffer (standard buffer), 5 μL of ATP solution in H2O, 5 μL of each test compounds of formula (I) in 10% DMSO, 10 μL of GSK3 (14-27) (200 ng)/10 μL of ALK5 solution (1 ng) (premixed). The reaction cocktail contained 60 mM HEPES-NaOH, pH 7.5, 3 mM MgCl2, 3 mM MnCl2, […], 1.2 mM DTT, 50 μg/mL PEG20000, 1 μM [γ-^33P]-ATP (approximately 2.5×10^5 cpm per well), 200 ng/10 μL GSK3 (14-27), and 1 ng/10 μL ALK5. The reaction cocktail was incubated at 30° C. for 60 min. […] Incorporation of ^33Pi (counting of “cpm”) was determined with a microplate scintillation counter (Microbeta, Wallac).\nInhibition of the ALK4 kinase phosphorylation by test compounds of formula (I) can be determined in a similar manner to that described above for ALK5 inhibition except that GST-tagged ALK4 (Invitrogen Corporation) and RBER-CHKtide are used in place of the GST-tagged ALK5 and GSK3 (14-27)."}, "[4]": {"system": "bleomycin (BLM)-treated mice", "experiment": "Anti-fibrotic effect on bleomycin-induced lung fibrosis model", "format": "in vivo"}, "4T1 cells [5]": {"system": "4T1 cells", "experiment": "Matrigel invasion assay", "format": "cell-based", "conditions": "TGF-β1 2 ng/mL, 20 h", "experimental": "The upper surface of Transwells (6.5 mm diameter, 8 μm pore size; […] After incubation for 20 h at 37° C. in 5% CO2, the cells remaining on the upper surface of the membrane were removed with a cotton swab, and DAPI-stained cells remaining on the bottom surface were observed using fluorescence microscopy. Average cell number per view field was obtained from 5 random fields."}, "[6]": {"conditions": "read-out: % inhibition at 1 μM, 1 μM"}, "[7]": {"conditions": "read-out: % inhibition at 10 μM, 10 μM"}, "[8]": {"conditions": "5 mg/kg orally three times per week for four weeks"}, "[9]": {"conditions": "10 mg/kg orally three times per week for four weeks"}, "[10]": {"conditions": "20 mg/kg orally three times per week for four weeks"}, "[11]": {"conditions": "orally three times per week for four weeks, Example 2 5, 10, 20 mg/kg, Example 3 21.8, 43.6 mg/kg"}, "[12]": {"conditions": "orally three times per week for four weeks, Western blot"}, "[13]": {"conditions": "5, 10, or 20 mg/kg orally five times per week for two weeks starting from day 7, Western blot"}},
  "data": [
    {"compound": "Cc1cccc(-c2[nH]c(CNc3ccccc3F)nc2-c2ccc3ncnn3c2)n1", "note": "[Example 2, N-((4-([1,2,4]triazolo[1,5-a]pyridin-6-yl)-5-(6-methylpyridin-2-yl)-1H-imidazol-2-yl)methyl)-2-fluoroaniline]", "values": [
      {"measurement": "inhibition at 1 µM", "setting": "ERK1; [6]", "result": 17, "unit": "%"},
      {"measurement": "inhibition at 10 µM", "setting": "ERK1; [7]", "result": 66, "unit": "%"},
      {"measurement": "inhibition at 1 µM", "setting": "STK23; [6]", "result": -4, "unit": "%"},
      {"measurement": "inhibition at 10 µM", "setting": "STK23; [7]", "result": -1, "unit": "%"},
      {"measurement": "inhibition at 1 µM", "setting": "ALK1; [6]", "result": 20, "unit": "%"},
      {"measurement": "inhibition at 10 µM", "setting": "ALK1; [7]", "result": 66, "unit": "%"},
      {"measurement": "inhibition at 1 µM", "setting": "EGF-R wt; [6]", "result": -8, "unit": "%"},
      {"measurement": "inhibition at 10 µM", "setting": "EGF-R wt; [7]", "result": 43, "unit": "%"},
      {"measurement": "inhibition at 1 µM", "setting": "PDGFRβ; [6]", "result": 47, "unit": "%"},
      {"measurement": "inhibition at 10 µM", "setting": "PDGFRβ; [7]", "result": 87, "unit": "%"},
      {"measurement": "inhibition at 1 µM", "setting": "AKT1; [6]", "result": 0, "unit": "%"},
      {"measurement": "inhibition at 10 µM", "setting": "AKT1; [7]", "result": 3, "unit": "%"},
      {"measurement": "4T1 cell growth", "setting": "4T1 cells [1]", "result": "no effect"},
      {"measurement": "TGF-β1-induced Smad2/3 nuclear translocation", "setting": "[2]", "result": "suppressed"},
      {"measurement": "Body weight", "setting": "[3]; [8]", "result": "324 ± 7.3", "unit": "g"},
      {"measurement": "Organ weight Liver", "setting": "[3]; [8]", "result": "17.5 ± 1.82", "unit": "g"},
      {"measurement": "Organ weight Liver/Body", "setting": "[3]; [8]", "result": "5.46 ± 0.62", "unit": "%"},
      {"measurement": "Organ weight Spleen", "setting": "[3]; [8]", "result": "2.00 ± 0.28", "unit": "g"},
      {"measurement": "Organ weight Spleen/Body", "setting": "[3]; [8]", "result": "0.63 ± 0.09", "unit": "%"},
      {"measurement": "Body weight", "setting": "[3]; [9]", "result": "312 ± 10.4", "unit": "g"},
      {"measurement": "Organ weight Liver", "setting": "[3]; [9]", "result": "15.8 ± 1.88", "unit": "g"},
      {"measurement": "Organ weight Liver/Body", "setting": "[3]; [9]", "result": "5.08 ± 0.60", "unit": "%"},
      {"measurement": "Organ weight Spleen", "setting": "[3]; [9]", "result": "1.57 ± 0.12", "unit": "g"},
      {"measurement": "Organ weight Spleen/Body", "setting": "[3]; [9]", "result": "0.51 ± 0.05", "unit": "%"},
      {"measurement": "Body weight", "setting": "[3]; [10]", "result": "312 ± 8.4", "unit": "g"},
      {"measurement": "Organ weight Liver", "setting": "[3]; [10]", "result": "15.2 ± 1.80", "unit": "g"},
      {"measurement": "Organ weight Liver/Body", "setting": "[3]; [10]", "result": "4.88 ± 0.63", "unit": "%"},
      {"measurement": "Organ weight Spleen", "setting": "[3]; [10]", "result": "1.50 ± 0.16", "unit": "g"},
      {"measurement": "Organ weight Spleen/Body", "setting": "[3]; [10]", "result": "0.48 ± 0.05", "unit": "%"},
      {"measurement": "BDL-induced histological change", "setting": "[3]; liver, H&E staining", "result": "greatly abolished"},
      {"measurement": "body weight loss in BDL rats", "setting": "[3]; [11]", "result": "recovered"},
      {"measurement": "organ (liver and spleen) weight in BDL rats", "setting": "[3]; [11]", "result": "decreased"},
      {"measurement": "serum ALT in BDL rats", "setting": "[3]; [11]", "result": "improved"},
      {"measurement": "serum AST in BDL rats", "setting": "[3]; [11]", "result": "improved"},
      {"measurement": "fibronectin in BDL rat liver", "setting": "[3]; [12]", "result": "suppressed"},
      {"measurement": "α-SMA in BDL rat liver", "setting": "[3]; [12]", "result": "suppressed"},
      {"measurement": "IC50", "setting": "ALK4", "result": 17.3, "unit": "nM"},
      {"measurement": "fibronectin in BLM-induced fibrotic lung", "setting": "[4]; [13]", "result": "suppressed"},
      {"measurement": "α-SMA in BLM-induced fibrotic lung", "setting": "[4]; [13]", "result": "suppressed"},
      {"measurement": "BLM-induced histological changes", "setting": "[4]; all dose levels tested (5, 10, 20 mg/kg orally), lung, H&E staining", "result": "greatly reduced"},
      {"measurement": "TGF-β1-induced cell invasion", "setting": "4T1 cells [5]", "result": "suppressed"}
    ]}
  ]
}
